Laboratory results published in article PMC10465960 (Acta Pharmaceutica Sinica. B, 2023).

Biological target: Trx-A-NMt-PCP (module 2 of the Sas17 NRPS protein) (Streptomyces calvus, UniProt A0A514JVM2)
Settings: NMt domain; methyl donor for PCP-bound Tyr; 5 mM SAM, 1 h

Trx-A-NMt-PCP (module 2 of the Sas17 NRPS protein), sequence (A0A514JVM2 1553-2567): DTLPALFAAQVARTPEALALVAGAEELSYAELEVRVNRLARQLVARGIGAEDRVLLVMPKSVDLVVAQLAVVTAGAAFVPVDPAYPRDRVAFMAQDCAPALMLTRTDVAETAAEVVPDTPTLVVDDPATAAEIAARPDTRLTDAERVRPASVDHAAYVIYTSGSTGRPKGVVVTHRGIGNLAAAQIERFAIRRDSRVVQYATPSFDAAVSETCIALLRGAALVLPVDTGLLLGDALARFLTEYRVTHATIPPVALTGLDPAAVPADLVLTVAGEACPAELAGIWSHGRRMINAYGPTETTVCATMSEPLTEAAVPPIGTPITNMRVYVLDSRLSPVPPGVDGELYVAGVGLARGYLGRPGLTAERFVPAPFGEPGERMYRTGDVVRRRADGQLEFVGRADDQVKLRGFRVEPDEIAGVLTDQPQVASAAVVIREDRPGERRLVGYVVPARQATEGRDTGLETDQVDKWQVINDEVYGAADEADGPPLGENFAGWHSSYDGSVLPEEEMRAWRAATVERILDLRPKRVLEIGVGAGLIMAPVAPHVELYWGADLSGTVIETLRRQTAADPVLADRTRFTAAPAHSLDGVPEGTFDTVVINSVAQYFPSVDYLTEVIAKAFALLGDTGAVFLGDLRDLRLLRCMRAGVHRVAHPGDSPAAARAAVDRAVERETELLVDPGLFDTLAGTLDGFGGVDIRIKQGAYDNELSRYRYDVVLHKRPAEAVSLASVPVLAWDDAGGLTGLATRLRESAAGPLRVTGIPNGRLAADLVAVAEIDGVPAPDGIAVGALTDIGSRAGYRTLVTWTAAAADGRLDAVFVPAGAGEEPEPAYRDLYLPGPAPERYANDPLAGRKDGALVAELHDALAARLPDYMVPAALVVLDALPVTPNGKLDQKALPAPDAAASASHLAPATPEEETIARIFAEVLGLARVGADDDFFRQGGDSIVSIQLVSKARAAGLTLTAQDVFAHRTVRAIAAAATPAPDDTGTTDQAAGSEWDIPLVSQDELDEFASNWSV

How did the “LC-MS of methylamine-cleaved PCP thioester” value turn out when C[S+](CC[C@H](N)C(=O)O)C[C@H]1O[C@@H](n2cnc3c(N)ncnc32)[C@H](O)[C@@H]1O (stereo partly shown) [SAM] was run?
Its value is “Reconstitution of the Mt domain using SAM then led to the methylation of the PCP-bound”.
